ChEMBL document CHEMBL4610024, “The ceramide analogue N-(1-hydroxy-3-morpholino-1-phenylpropan-2-yl)decanamide induces large lipid droplet accumulation and highlights the effect of LAMP-2 deficiency on lipid droplet degradation” (Bioorg Med Chem Lett, 2020)
The source made the active and inactive calls. No cut-off for these calls is given here.

Assays:
[1] = system: L929; test: Induction of large autophagosome formation in CRISPR/Cas9-mediated LAMP2 knocked out mouse L cells assessed as loosened multilamellar bodies at 40 uM measured after 17 hrs by transmission electron microscopy analysis; assay type: functional, cell-based
[2] = system: L929; test: Induction of autophagy in CRISPR/Cas9-mediated LAMP2 knocked out mouse L cells assessed as formation of LC3 puncta rim around large autophagosome at 40 uM measured after 17 hrs by Hoechst 33342 staining based assay; assay type: functional, cell-based
[3] = biological target: T1, Lysosome-associated membrane glycoprotein 2 (Mus musculus) (UniProt P17047); test: Induction of LAMP2-mediated lipid droplet degradation in mouse L cells assessed as increase in length of long axis of lipid droplet at 40 uM measured after 17 hrs by transmission electron microscopy analysis; assay type: cell-based; conditions: L929
T1 sequence (whole entry): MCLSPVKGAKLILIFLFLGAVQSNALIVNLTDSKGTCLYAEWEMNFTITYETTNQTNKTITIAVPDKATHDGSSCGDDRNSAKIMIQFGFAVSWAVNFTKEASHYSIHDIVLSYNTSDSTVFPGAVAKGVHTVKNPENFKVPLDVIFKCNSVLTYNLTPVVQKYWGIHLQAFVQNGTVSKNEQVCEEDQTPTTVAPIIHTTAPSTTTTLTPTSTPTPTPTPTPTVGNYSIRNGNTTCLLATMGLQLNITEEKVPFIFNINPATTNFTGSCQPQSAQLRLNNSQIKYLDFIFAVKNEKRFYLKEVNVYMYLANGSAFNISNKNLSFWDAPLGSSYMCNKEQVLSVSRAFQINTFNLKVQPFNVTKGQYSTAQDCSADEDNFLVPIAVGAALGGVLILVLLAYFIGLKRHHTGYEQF

[4] = biological target: T1, Lysosome-associated membrane glycoprotein 2 (Mus musculus); test: Induction of LAMP2-mediated autophagy in mouse L cells assessed as increase in LC3 puncta at 40 uM measured after 17 hrs by Hoechst 33342 staining based assay; assay type: cell-based; conditions: L929
[5] = system: L929; test: Induction of large autophagosome formation in CRISPR/Cas9-mediated LAMP2 knocked out mouse L cells assessed as degradation of multilamellar bodies at 40 uM measured after 17 hrs by transmission electron microscopy analysis; assay type: functional, cell-based
[6] = system: L929; test: Induction of lipid droplet degradation in CRISPR/Cas9-mediated LAMP2 knocked out mouse L cells assessed as decrease in number of lipid droplet with long axis exceeding 1 um at 40 uM measured after 17 hrs by transmission electron microscopy analysis; assay type: functional, cell-based
[7] = system: L929; test: Induction of large autophagosome formation in CRISPR/Cas9-mediated LAMP2 knocked out mouse L cells assessed as accumulation of abnormal multilamellar bodies at 40 uM measured after 17 hrs by transmission electron microscopy analysis; assay type: functional, cell-based
[8] = system: L929; test: Induction of large autophagosome formation in CRISPR/Cas9-mediated LAMP2 knocked out mouse L cells assessed as decrease in multilamellar bodies layers at 40 uM measured after 17 hrs by transmission electron microscopy analysis; assay type: functional, cell-based
[9] = system: L929; test: Induction of autophagy in CRISPR/Cas9-mediated LAMP2 knocked out mouse L cells assessed as increase in […] puncta at 40 uM measured after 17 hrs by Hoechst 33342 staining based assay; assay type: functional, cell-based
[10] = biological target: T1, Lysosome-associated membrane glycoprotein 2 (Mus musculus); test: Induction of LAMP2-mediated lipid droplet enlargement in mouse L cells at 40 uM measured after 17 hrs by LipiDye staining based assay; assay type: cell-based; conditions: L929
[11] = system: L929; test: Induction of autophagy in CRISPR/Cas9-mediated LAMP2 knocked out mouse L cells assessed as formation of LC3 puncta rim in other part of cell at 40 uM measured after 17 hrs by Hoechst 33342 staining based assay; assay type: functional
[12] = system: L929; test: Induction of lipid droplet degradation in CRISPR/Cas9-mediated LAMP2 knocked out mouse L cells at 40 uM measured after 17 hrs by LipiDye staining based assay; assay type: functional, cell-based

## CCCCCCCCCC(=O)NC(CN1CCOCC1)C(O)c1ccccc1 (configuration not stated)
[1]
  Activity: Active
[2]
  Activity: Active
[3]
  Activity: Active
[4]
  Activity: Active
[5]
  Activity: Active
[6]
  Activity: inactive
[7]
  Activity: Active
[8]
  Activity: Active
[9]
  Activity: Active
[10]
  Activity: Active
[11]
  Activity: inactive
[12]
  Activity: inactive
